One assay deals with MCF7 (breast). In words: In vitro cytotoxic activity MTT assay, MCF7. The following applies: Homo sapiens, 96 hours exposure, read-out: IC50, concentration eliciting a 50% inhibition of cell proliferation. It is filed as cell-based. Here is the method:
(§1) Compounds 1-16 were screened for their in vitro cytotoxic activity utilizing a 3-(4,5-dimethyl-thiazol-2-yl)-2,5-diphenyltetrazolium bromide (MTT) assay against selected cancer human cell lines consisting of PC3 (prostate), HCT116 (colon), A375 (melanoma), H1299 (lung), MIAPaCa-2 (pancreas), HL60 (leukemia), MCF7 (breast), MDA-MB-231 (breast) (T. Mosmann, J. Immunol. Meth., 1983, 65, 55-63). The cells were cultured at 37° C. in RMPI1640 medium supplemented with 10% fetal bovine serum, 50 IU/mL penicillin, and 50 μg/mL streptomycin in a 5% CO2 incubator. All cells were sub-cultured 3 times/week by trypsinisation. Viable cells were seeded and allowed to adhere for 12 h before a test drug was added in 96-well plates at an initial density of 1.0×10^5 cells/mL. Tumour cell lines were separately exposed to various concentrations of the tested compounds followed by incubation at a temperature of 37° C. during 96 h inside a medium of fresh RMPI 1640. Cells were subsequently incubated at 37° C. using MTT at 0.5 mg/mL during 4 h. After removal of supernatant, formazan crystals were dissolved in isopropanol and the optical density was measured at 570 nm. CX-4945 was used as a positive control.
A general note: Formazan colour is commonly taken as a measure of viable cells.

For another assay, the system named is PC3 (prostate). Put plainly: In vitro cytotoxic activity MTT assay, PC3. It counts as cell-based. The following applies: Homo sapiens, 96 hours exposure, read-out: IC50, concentration eliciting a 50% inhibition of cell proliferation. Here is the method: as §1
For a further assay, the system named is H1299 (lung). In words: In vitro cytotoxic activity MTT assay, H1299. It counts as cell-based. The following applies: Homo sapiens, NCI-H1299, 96 hours exposure, read-out: IC50, concentration eliciting a 50% inhibition of cell proliferation. As for the experimental part: as §1
In assay [1] the target is T1, recombinant human CK2 (RRββ-holoenzyme) (Homo sapiens, UniProt P68400).
T1 construct: purchased Millipore
T1 sequence (P68400 whole entry): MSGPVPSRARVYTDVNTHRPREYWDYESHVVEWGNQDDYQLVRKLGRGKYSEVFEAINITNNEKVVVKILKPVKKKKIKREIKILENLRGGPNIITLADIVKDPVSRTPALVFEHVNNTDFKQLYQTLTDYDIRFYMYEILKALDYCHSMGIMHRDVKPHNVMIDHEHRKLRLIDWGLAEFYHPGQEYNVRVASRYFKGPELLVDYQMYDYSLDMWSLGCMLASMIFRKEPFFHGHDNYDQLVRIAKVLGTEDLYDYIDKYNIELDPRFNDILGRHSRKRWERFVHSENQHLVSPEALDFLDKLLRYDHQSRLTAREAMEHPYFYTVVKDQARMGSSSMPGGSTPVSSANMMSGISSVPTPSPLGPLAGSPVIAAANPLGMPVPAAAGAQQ
T1 sequence (P67870 whole entry partner): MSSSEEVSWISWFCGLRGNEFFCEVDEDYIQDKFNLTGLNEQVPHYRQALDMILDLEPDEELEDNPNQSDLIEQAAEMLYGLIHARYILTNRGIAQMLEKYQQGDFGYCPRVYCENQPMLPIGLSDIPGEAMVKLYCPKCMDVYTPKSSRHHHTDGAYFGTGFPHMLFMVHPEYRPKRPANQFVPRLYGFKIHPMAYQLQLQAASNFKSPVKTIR
Put plainly: CK2 Kinase Assay (33P-ATP, substrate peptide RRRDDDSDDD). The following applies: final ATP 15 μM, 10 min at 30 °C; read-out: protein kinase CK2 IC50. It counts as biochemical. As for the experimental part: CK2 Kinase Assay was conducted using the protocol as described in Pierre F. et al.; J. Med. Chem. 2011, 54, 635-654. The tested compounds in aqueous solution were added at a volume of 10 μL to a reaction mixture comprising 10 μL of assay dilution buffer (ADB; 20 mM MOPS, pH 7.2, 25 mM β-glycerol phosphate, 5 mM EGTA, 1 mM sodium orthovanadate, and 1 mM dithiothreitol), 10 μL of substrate peptide (RRRDDDSDDD, dissolved in ADB at a concentration of 1mM), 10 μL of recombinant human CK2 (RRββ-holoenzyme, 25 ng dissolved in ADB; Millipore). Reactions were initiated by the addition of 10 μL of ATP solution (90% 75 mMMgCl2, 75 μM ATP (final ATP concentration:15 μM) dissolved in ADB; 10% [γ-33P] ATP (stock 1 mCi/100 μL; 3000 Ci/mmol (Perkin-Elmer) and maintained for 10 min at 30 ° C. The reactions were quenched with 100 μL of 0.75% phosphoric acid and then transferred to and filtered through a phosphor cellulose filter plate (Millipore). After washing each well five times with 0.75% phosphoric acid, the plate was dried under vacuum for 5 min and, following the addition of 15 μL of scintillation fluid to each well, the residual radioactivity was measured using a Wallac luminescence counter. The IC50 values were derived from eight concentrations of test inhibitors.

For the next assay, the system named is HL60 (leukemia). In words: In vitro cytotoxic activity MTT assay, HL60. It counts as cell-based. The following applies: Homo sapiens, HL-60, 96 hours exposure, read-out: IC50, concentration eliciting a 50% inhibition of cell proliferation. Here is the method:
as §1

Another assay concerns HCT116 (colon). Put plainly: In vitro cytotoxic activity MTT assay, HCT116. It counts as cell-based. The following applies: Homo sapiens, HCT-116, 96 hours exposure, read-out: IC50, concentration eliciting a 50% inhibition of cell proliferation. Here is the method: as §1
The subject of a further assay is A375 (melanoma). In words: In vitro cytotoxic activity MTT assay, A375. It is filed as cell-based. The following applies: Homo sapiens, A-375, 96 hours exposure, read-out: IC50, concentration eliciting a 50% inhibition of cell proliferation. Here is the method:
as §1

In a further assay the test system is MDA-MB-231 (breast). Put plainly: In vitro cytotoxic activity MTT assay, MDA-MB-231. The following applies: Homo sapiens, 96 hours exposure, read-out: IC50, concentration eliciting a 50% inhibition of cell proliferation. It is filed as cell-based. As for the experimental part:
as §1

In a further assay the test system is MIAPaCa-2 (pancreas). In words: In vitro cytotoxic activity MTT assay, MIAPaCa-2. It counts as cell-based. The following applies: Homo sapiens, MIA PaCa-2, 96 hours exposure, read-out: IC50, concentration eliciting a 50% inhibition of cell proliferation. As for the experimental part:
as §1

pIC50: −log10 of the molar value.

Among the data in US11897883B1, “Pyrrolo[3,2-c][1,6]naphthyridine-2-carboxylic acid compounds as CK2 inhibitors” (KING FAISAL UNIVERSITY, priority 2023, dated 2024) are IC50 values, retold here.

Take `O=C(O)c1cc2c(Nc3cccc(Cl)c3)nc3ccncc3c2[nH]1` [Compound 1, 4-((3-chlorophenyl)amino)-1H-pyrrolo[3,2-c][1,6]naphthyridine-2-carboxylic acid]: the pIC50 in the assay on MCF7 (breast) was 5.38; with PC3 (prostate), 5.68; in the assay on H1299 (lung), 5.85; in [1] it was 7.59; with HL60 (leukemia), 5.60; in the assay on HCT116 (colon) it was 5.89. In addition, the pIC50 was 5.54 with A375 (melanoma), 5.43 with MDA-MB-231 (breast) and 5.96 in the assay on MIAPaCa-2 (pancreas).
